Results as given in US20050048132A1, “Use of hydrochloric acid in the preparation of a medicament for the treatment of tumour” (priority 2001, published 2005).
Like-named read-outs stand apart in the source and are kept apart here.

How the values were obtained:
pig livers in vitro = conditions: 0.5 ml each; after 24 hours
From the text: Twelve pig livers purchased from the market were divided into 4 groups, 3 in each group. A puncture needle was punctured to the center of the liver tissue and then connected with an automatic microinjecting pump.

S-180 sarcomas = conditions: forty-eight hours after injection; for Diameters of coagulating necrotic area / Gross shapes: 0.05 ml each into tumor 1 cm in size
From the text: S-180 sarcomas were implanted into the hypodermal tissues of mice of Kun Ming species. When the tumor grew into 1 cm in size, a puncture needle was punctured into the center of the tumor and then connected with an automatic micro-injecting pump.

liver of hogs in vivo = conditions: 1.0 ml each into hog liver; 1 week after injection
From the text: Experiment in vivo: Nine hogs (females and males) with average body weight of 70 kg were fed in an enclosed area. The hogs were divided into 3 groups, 3 hogs in each group. The hair on the location of liver was shaved and the skin was sterilized. […] The animals were dissected 1 week after the injection.

[1] = tested on: cancerous pain due to advanced cancers; conditions: 3.6 wt % HCl to block and damage the nerves
kidney cancer = conditions: 1.5 ml of 18 wt % HCl, 3 months after treatment
Experimental: Treatment of kidney cancer: guided by CT, the puncture needle hit the center of the tumor, 1.5 ml of 18 wt % HCl was injected into the tumor slowly.

[2] = tested on: abdominal hypodermal tissue of mice
Experimental: Thirty mice were used in the experiment. 0.05 ml of 3.8 wt % HCl was injected into the abdominal hypodermal tissue of each of them. […] Injection of 0.05 ml of normal saline was given to each of the remaining 6 mice which served as the control group. Normal saline was injected into the corresponding site where HCl had been injected to the other experimental mice.

skin of guinea pig = conditions: 0.2 ml of 3.6 wt % HCl hypodermal
Experimental: Six guinea pigs, female and males, 500 g each in body weight, were fed in the routine way. The guinea pig was anesthetized by ether. 0.2 ml of 3.6 wt % HCl was injected into the hypodermal tissue of the guinea pig.

[3] = tested on: metastatic tumor of the left lobe of the brain from pulmonary adenocarcinoma; conditions: 1.0 ml of 18 wt % HCl, two times; tumor 1.9 cm×1.9 cm before; 3 months after treatment
cancer cells = assay: Cultivation of cancer cells in vitro together with gastric juice; type: cell-based
[4] = tested on: primary bronchopulmonary carcinoma
Experimental: Two cases of primary bronchopulmonary carcinoma which were pathologically confirmed were chosen. One was a case of adenocarcinoma, the other was a case of adenous prickle cell carcinoma. The sizes of the two tumors were 2.0×2.0 cm and 2.5×2.0 cm respectively. After CT location, guided by CT, percutaneous puncture was carried out on each case; the needle reached the center of the tumor and connected with an automatic micro-injecting pump, 1.5, 2.0 ml of 18 wt % HCl were injected into the tumors at a speed of 0.2 ml/min.

[5] = tested on: recurrent carcinoma of breast; conditions: 1.0 ml of 18 wt % HCl, treated three times; tumor 2.0 cm×1.5 cm
pig liver in vitro = tested on: pig liver in vitro
Experimental: Thirty pig livers purchased from the market were divided into 10 groups, 3 in each group. […] One milliliter (1 ml) of hydrochloric acid solutions, (the concentrations being 1.8 wt %, 3.6 wt %, 7.2 wt %, 10.8 wt %, 14.4 wt %, 18 wt %, 25.2 wt %), and 1 ml , 0.5 ml, 0.1 ml respectively, of analytical pure hydrochloric acid were injected slowly to the […] of different groups, at a speed of 0.3 ml/min. The gross specimens were observed and the average value of the diameters of coagulated areas was determined.

pig liver in vivo = conditions: for diameters of coagulated areas / pathological changes: 1 ml of 3.6% hydrochloric acid
From the text: Ten hogs (females and males), with body weights of 70 kg on average, were fed in an enclosed area. The hair on the location of the liver of each hog was shaved and the skin sterilized guided by B-type ultrasonography. The puncture needle was punctured through the skin to the liver and then the needle was connected with an automatic micro-injecting pump. […] The animal was dissected at 1 week, 4 weeks, 12 weeks and 24 weeks after injection, and the shapes of the coagulating necrotic areas were observed and the diameters of the areas were measured. […] Then the liver tissue including normal tissue and coagulating necrotic tissue was fixed with formalin. Paraffin sections were prepared and the histopathological changes were observed under a microscope. […] Under a microscope, the structure of coagulating necrotic liver tissue was divided into two layers: the necrotic area in the center, and the surrounding reacting area.

lungs of hogs = tested on: lungs of hogs
From the text: The lung of the animal was dissected 1 week after the injection.

[6] = tested on: metastatic tumor of the adrenal gland from pulmonary carcinoma; conditions: 1.0 ml of 18 wt % HCl, treated three times
[7] = 1.5 ml-2.0 ml of 18 wt % HCl with i.v. 5 wt % sodium bicarbonate, 4 patients
[8] = 1.5 ml-2.0 ml of 18 wt % HCl, one week after injection

Experimental for W256 sarcoma: Rats, female and males, 500 g each in body weight, were fed routinely. Hypodermic implantation of W256 sarcoma was carried out. Sarcoma, 5 cm in diameter, was chosen. One (1.0) ml of 18 wt % HCl was slowly injected into the tumor. Twenty-four hours after injection, the rats were dissected, and the tumors were observed.

`CC(=O)O` [50% acetic acid, acetic acid] was tested, and the “diameter of coagulating necrotic area” value (pig livers in vitro) was 2.0 cm, the gross shape (pig livers in vitro) was “lump-like, white, the border” and the “Diameters of coagulating necrotic area” value (S-180 sarcomas) was 0.62 cm. The Gross shapes (S-180 sarcomas) was “brown, the border was unclear,”, the “diameter of coagulating necrotic area” value (liver of hogs in vivo) was “about 1.8 cm” and the “gross examination of coagulating necrotic area” value (shortened to “gross examination”) (liver of hogs in vivo) was “did not have a definite border”.
For `CCO` [100% absolute alcohol, absolute alcohol], the “diameter of coagulating necrotic area” value (pig livers in vitro) was 0.5 cm, the gross shape (pig livers in vitro) was “spherical, white, the border” and the “Diameters of coagulating necrotic area” value (S-180 sarcomas) was 0.41 cm. The Gross shapes (S-180 sarcomas) was “spherical, white in color, the border”, the “diameter of coagulating necrotic area” value (liver of hogs in vivo) was 0.5 cm and the “gross examination” value (liver of hogs in vivo) was “spherical, white in color”.
In the case of `Cl` [hydrochloric acid], the “relief of cancerous pain” value [1] is reported as “pain could be relieved”, the “pH value of blood, blood routine tests, liver and kidney function tests” value (primary liver cancer; [7]) is reported as “all normal” and the “painful or toxic manifestation” value (primary liver cancer; [7]) is reported as “None of the 4 patients had painful or toxic manifestation”. The “color ultrasonography of the tumor” value (primary liver cancer; [8]) was “high level echo without blood flow area”, the “liver cancer sensitive index α-fetoglobulin value” (primary liver cancer; [8]) was “markedly lowered” and the “diameter of coagulating necrotic area” value (pig livers in vitro) was 2.2 cm. The gross shape (pig livers in vitro) was “spherical, grayish white in color, the”, the “Diameters of coagulating necrotic area” value (S-180 sarcomas) was 0.76 cm and the Gross shapes (S-180 sarcomas) was “spherical, caseous, grayish white in color,”. The “necrosis of the tumor” value (S-180 sarcomas; 0.05 ml) was “complete necrosis of the tumor”, the “appearance of tumor on re-examination” value (kidney cancer) was “high level echo locus without blood flow” and the “diameter of tumor on re-examination” value (kidney cancer; tumor 3.0 cm×2.5 cm before) was 0.5 cm. The “damage in the abdominal organs by dissection” value ([2]; 0.05 ml of 3.8 wt % HCl abdominal hypodermal) was “No damage was found in the abdominal organs”, the “diameters of damages (ulcer-like damages of the skin)” value ([2]; 0.05 ml of 3.8 wt % HCl then 0.05 ml normal saline (control group)) was 1.2 cm and the “diameters of scar areas” value ([2]; 0.05 ml of 3.8 wt % HCl then normal saline (control group), one week later) was 0.9 cm. The “diameter of coagulating necrotic area” value (liver of hogs in vivo) was 2.1 cm, the “gross examination” value (liver of hogs in vivo) was “spheroid” and the “skin change after injection” value (skin of guinea pig) was “the skin became rough and a little exudation occurred”. The “skin change three weeks later” value (skin of guinea pig; iodine tincture smeared, three weeks later) was “the surface became dry and scar was formed”, the “diameter of surface of ulcer” value (skin of guinea pig; one week after injection) was 1.0 cm and the “size of metastatic tumor by intensified CT” value [3] was 0.8 cm. The “effect on cancer cells in culture” value (cancer cells) was “the destruction was due to gastric acid”, the “coagulating necrotic ranges of the liver” value (hogs; 18 wt % HCl, 0.5, 1, 3 ml at 0.1, 0.5, 1 ml/min into hog liver, one week after injection) was 1.2-5.2 cm and the death or intoxication (hogs; 18 wt % HCl, 0.5 ml-3 ml into hog liver) was “No death or intoxication of hog occurred”. For the same molecule, the “cytological examination of needle puncture biopsy” value ([4]; 1.5, 2.0 ml of 18 wt % HCl) was “found necrotic tissue”, the “reactions during the treatment” value ([4]; 1.5, 2.0 ml of 18 wt % HCl with i.v. 5% sodium bicarbonate, two patients) was “coughed slightly during the treatment; no other painful or toxic manifestations occurred” and the “pH value of blood, blood routine tests, liver and kidney function tests” value ([4]; 1.5, 2.0 ml of 18 wt % HCl, two patients) was “all normal”. For the same molecule, the tumor response [5] was “basically turned into necrotic tissue”, the “Diameter of coagulated areas” value (pig liver in vitro; 0.1 ml of analytic pure hydrochloric acid (36%), 24 hours after injection) was 1.5 cm and the “Diameter of coagulated areas” value (pig liver in vitro; 0.1 ml of analytic pure hydrochloric acid (36%), immediately after injection) was 0.2 cm. The “Diameter of coagulated areas” value (pig liver in vitro; 0.5 ml of analytic pure hydrochloric acid (36%), 24 hours after injection) was 3.9 cm, the “Diameter of coagulated areas” value (pig liver in vitro; 0.5 ml of analytic pure hydrochloric acid (36%), immediately after injection) was 1.5 cm and the “Diameter of coagulated area” value (pig liver in vitro; 1 ml of 1.8 % hydrochloric acid, 24 hours after injection) was 0.75 cm. The “Diameter of coagulated area” value (pig liver in vitro; 1 ml of 1.8 % hydrochloric acid, immediately after injection) was 0.7 cm, the “Diameter of coagulated area” value (pig liver in vitro; 1 ml of 3.6 % hydrochloric acid, 24 hours after injection) was 1.4 cm and the “Diameter of coagulated area” value (pig liver in vitro; 1 ml of 3.6 % hydrochloric acid, immediately after injection) was 1.0 cm. For the same molecule, the “Diameter of coagulated area” value (pig liver in vitro; 1 ml of 7.2 % hydrochloric acid, 24 hours after injection) was 1.9 cm, the “Diameter of coagulated area” value (pig liver in vitro; 1 ml of 7.2 % hydrochloric acid, immediately after injection) was 1.3 cm and the “Diameter of coagulated area” value (pig liver in vitro; 1 ml of 10.8 % hydrochloric acid, 24 hours after injection) was 2.2 cm. For the same molecule, the “Diameter of coagulated area” value (pig liver in vitro; 1 ml of 10.8 % hydrochloric acid, immediately after injection) was 1.5 cm, the “Diameter of coagulated area” value (pig liver in vitro; 1 ml of 14.4 % hydrochloric acid, 24 hours after injection) was 3.1 cm and the “Diameter of coagulated area” value (pig liver in vitro; 1 ml of 14.4 % hydrochloric acid, immediately after injection) was 1.8 cm. The “Diameter of coagulated area” value (pig liver in vitro; 1 ml of 18 % hydrochloric acid, 24 hours after injection) was 4.8 cm, the “Diameter of coagulated area” value (pig liver in vitro; 1 ml of 18 % hydrochloric acid, immediately after injection) was 2.2 cm and the “Diameter of coagulated area” value (pig liver in vitro; 1 ml of 25.2 % hydrochloric acid, 24 hours after injection) was 5.2 cm. For the same molecule, the “Diameter of coagulated area” value (pig liver in vitro; 1 ml of 25.2 % hydrochloric acid, immediately after injection) was 2.4 cm, the “Diameter of coagulated areas” value (pig liver in vitro; 1.0 ml of analytic pure hydrochloric acid (36%), 24 hours after injection) was 5.5 cm and the “Diameter of coagulated areas” value (pig liver in vitro; 1.0 ml of analytic pure hydrochloric acid (36%), immediately after injection) was 2.8 cm. The “diameters of coagulated areas” value (pig liver in vivo; 1 week after injection) was 1.8 cm, the pathological changes (pig liver in vivo; 1 week after injection) was “necrotic area occupies most part of the area,” and the “diameters of coagulated areas” value (pig liver in vivo; 4 weeks after injection) was 1.3 cm. The pathological changes (pig liver in vivo; 4 weeks after injection) was “The necrotic area became smaller, infiltration”, the “diameters of coagulated areas” value (pig liver in vivo; 12 weeks after injection) was 0.5 cm and the pathological changes (pig liver in vivo; 12 weeks after injection) was “The necrotic area became further smaller, the”. For the same molecule, the “animal death during the experiment” value (pig liver in vivo; 1 ml of 3.6 wt % hydrochloric acid into hog liver) was “no animal died due to the treatment”, the “diameter of round high level echo region at coagulated site by B-type ultrasonography” value (pig liver in vivo; 1 ml of 3.6 wt % hydrochloric acid, immediately after injection) was 2.0 cm and the “fate of necrotic substances” value (pig liver in vivo; 1 ml of 3.6 wt % hydrochloric acid, sixteen weeks after injection) was “the necrotic substances were absorbed”. The “reaction of animal at injection” value (lungs of hogs; 1.0 ml of 3.6 wt % HCl into the lung at 0.3 ml/min) was “coughed slightly”, the “diameter of coagulated (consolidated) lung tissue” value (lungs of hogs; 1.0 ml of 3.6 wt % HCl, 1 week after injection) was 1.8 cm and the “coagulating necrotic area on dissection of the lung” value (lungs of hogs; 1.0 ml of 3.6 wt % HCl, four weeks after injection) was “the coagulating necrotic area became smaller”. The “fate of necrotic substances” value (lungs of hogs; 1.0 ml of 3.6 wt % HCl, three months after injection) was “the necrotic substances were absorbed”, the “diameter of brown necrotic tumor tissue” value (W256 sarcoma; 1.0 ml of 18 wt % HCl into sarcoma 5 cm in diameter, 24 hours after injection) was 3.5 cm and the “death or intoxication during the treatment” value (W256 sarcoma; 1.0 ml of 18 wt % HCl intratumoral) was “no death or intoxication occurred among the rats”. The “histopathologic changes by microscopy” value (W256 sarcoma; 1.0 ml of 18 wt % HCl, 24 hours after injection) was “complete necrosis occurred in the necrotic area” and the tumor response [6] was “necrosis of the tumor occurred”.
